Experimental data as given in paper PMC10222203 (Pharmaceutics, 2023).

Columns and labels:
dynamin = test system: dynamin; design: method as in PMID 16740485, PMID 24491918; conditions: cited from earlier work
[1] = test system: brain-like endothelial cells (BLECs); assay: in vitro; conditions: control, absence of peptide (0 nM)
Procedure: The in vitro BBB model, consisting of CD34^+ endothelial cells (ECs) derived from hematopoietic stem cells in co-culture with bovine brain pericytes, was established as described by Cecchelli et al.. Written and informed consent was obtained for the collection of human umbilical cord blood, in compliance with French legislation. […] All experiments were carried out in line with the authorized protocol.
These isolated CD34+ cells were cultured in EGM-2, supplemented with 20% (v:v) FBS and 50 ng/mL vascular endothelial growth factor on 1% (w:v) gelatine-coated 24-well plates (2 × 10^5 cells/well). After 15–20 days, ECs are seen in the culture dish. For each experiment, the cells were expanded in 1% (w:v) gelatine-coated T75 flasks (BD Biosciences, Le Pont-de-Claix, France) in EGM-2. Bovine brain pericytes were isolated and characterized as described by Vandenhaute et al.. Sub-clones were cultured in Dulbecco’s Modified Eagle’s Medium supplemented with 20% (v:v) FBS, 2 mM L-glutamine, 50 µg/mL gentamycin, and 1 ng/mL basic fibroblast growth factor. At confluency, 5 × 10^4 cells were seeded in ECM-5 with 5% (v:v) FBS, 50 µg/mL gentamycin, and 0.5% endothelial cell growth factor in gelatine-coated 12-well plates (Costar, Corning Inc., New York, NY, USA). CD34^+-derived ECs were seeded at 8 × 10^4 cells per Matrigel-coated (BD Biosciences) insert (3401, Corning Inc., NY, USA) and put in co-culture with the bovine brain pericytes, with the pericytes at the bottom of the well, for 6 days to achieve brain-like endothelial cell (BLEC) characteristics (Figure 4b).
At the beginning of the permeability experiments, inserts with BLEC monolayers were transferred to new abluminal (receiver) compartments previously filled with 1.5 mL of RH buffer, and 500 µL of the compounds dissolved in RH buffer, with the addition of the paracellular marker sodium fluorescein (NaFlu), were added to the luminal (donor) compartment. After 3 h of incubation at 37 °C, with a shaking velocity of 60 rpm, aliquots were taken from the donor and receiver compartment. The BLEC monolayers were washed twice with cold RH buffer and lysed with RLT Lysis buffer. The samples were kept at −20 °C pending analysis in low-binding tubes.
An increase in the permeability to NaFlu in the presence of the peptide can indicate an increase in paracellular leakage and consequent loss of barrier integrity. To evaluate the ability of test compounds to cross Matrigel-coated filters without cells and to control for the adsorption to plastics and/or Matrigel, the NaFlu and peptide’s permeability over inserts without cells were also assessed. Mass balance (M.B%) was calculated from the amount of compound recovered in both compartments at the end of the experiment divided by the total amount added to the donor compartment at the start of the experiment.
Samples from both compartments as well as the lysed endothelial cells were analysed for fluorescence using a Synergy H1 (Biotek) set to quantify NaFlu (wavelengths Excitation 490 nm and Emission 525 nm) and with UPLC-MS/MS to assess the permeability and cellular uptake of the peptides. All experiments were performed in triplicate (n = 3 independent experiments per concentration and cCPPs).
Papp is the apparent permeability, J is the rate of appearance of the compound in the receiver compartment (amount/sec), and C0 is the concentration in the donor compartment at the start of the experiment (amount/mL).

Compound: O=C(N/N=C/c1ccc(O)c(O)c1)c1cc2ccccc2cc1O [Dynasore, dynasore]
- Decrease in dynamin activity (dynamin; 50 µM): 70%
- IC50 (dynamin): 15 µM

Compound: O=C([O-])c1ccccc1-c1c2ccc(=O)cc-2oc2cc([O-])ccc12.[Na+].[Na+] [sodium fluorescein, reference compound]
- Permeability (Pe) to sodium fluorescein, mean [1]: 0,46 10‐3 cm/min
